Reference: patent US6319902A, “Peptide derivatives having thiazolyl-alanine residue” (Shionogi & Co., Ltd., priority 1999, dated 2001)

Assays:
Assay type in all cases: in vivo
[1] = Change of blood glucose levels after administration of the test compounds to rats; conditions: for blood glucose level as a percentage compared to the baseline level (vehicle-treated rats = 100%): 50 μmol/kg intravenously
[2] = test system: Reserpine-induced hypothermia mice; assay: Anti-reserpine action after intravenous and intracerebroventicular administration of test compounds; conditions: for Dose which can increase the average of body temperatures at 1° C. for 180 min in reserpine-induced hypothermia mice, administered intracerebroventicularly: intracerebroventicular, calculated from AUC for 180 min after 0.21 μmol/kg
Experimental: Anti Recerpine Action After Intravenous and Intracerebroventicular Administration of Test Compounds
Recerpine-induced hypothermia mice (ddY, male) were prepared by the administration of reserpine (3 mg/kg) at 18 hours before test compounds administration. Mice with their body temperature about 25° C. were used in the experiment. Test compounds were solubilized in saline and 0.1 ml (1 μmol/kg) of them were administered intravenously and 0.005 ml (0.21 μmol/kg) of them were administered intracerebroventicularly, respectively. After the administration, rectal temperature was measured at 30, 60, 120, and 180 min. The area under curve (AUC) of the body temperature-time profile was calculated by the general trapezoidal method. In the control experiment, vehicle (saline) was administered to mice intravenously or intracerebroventicularly and the rectal temperature was measured by the same protocol. The effective dose, which can increase the average of body temperatures at 1° C. for 180 min in reserpine-induced hypothermia mice after intravenous or intracerebroventicular administration of the test compounds, is calculated by the following equation: [formula]
Effective dose: Dose which can increase the average of body temperatures at 1° C. for 180 min in reserpine-induced hypothermia mice.
AUC (test compounds): The area under curve (AUC) of the body temperature-time profile for 180 min after intravenous or intracerebroventicular administration of test, compounds was calculated by the general trapezoidal method.
AUC (vehicle): The area under curve (AUC) of the body temperature-time profile for 180 min after intravenous or intracerebroventicular administration of saline was calculated by the general trapezoidal method.

[3] = test system: Reserpine-induced hypothermia mice; assay: Anti-reserpine action after oral administration of test compounds; conditions: calculated from AUC of body temperature-time profile for 420 min after 10 μmol/kg
Experimental: Anti-recerpine Action After Oral Administration of Test Compounds
Reserpine-induced hypothemia mice (ddY, male, body weight: 30 to 40 g) were prepared by the subcutaneous administration of reserpine in back side of the […] (3 mg/kg) at 18 hours before test compounds administration. Mice with their body temperature about 25° C. were used in the experiment. Test compounds were solubilized in saline and 0.2 ml (10 μmol/kg) of them were administered by sonde for oral administration. After the administration, rectal temperature was measured at, 30, 60, 120, 180, 240, 300, and […]. The area under curve (AUC) of the body temperature-time profile was calculated by the general trapezoidal method. In the control experiment, vehicle (saline) was administered to mice and the rectal temperature was measured by the same protocol. The effective dose, which can increase the average of body temperature at 1° C. for 420 min in reserpine-induced hypothermia mice after oral administration of the test compounds, is calculated by the following equation: [formula]
Effective dose: Dose which can increase the average of body temperatures at 1° C. for 420 min in reserpine-induced hypothermia mice.
AUC (test compounds): The area under curve (AUC) of the body temperature-time profile for 420 min after oral administration of test compounds was calculated by the general trapezoidal method. […]

C[C@H]1OC(=O)N[C@H]1C(=O)N[C@@H](Cc1cscn1)C(=O)N1CCC[C@H]1C(N)=O (mixture of isomers) [Compound I-10, cis-L-5-methyl-2-oxo-oxazolidine-4-yl-carbonyl-3-(4-thiazolyl)-L-alanyl-L-prolineamide]
blood glucose level as a percentage compared to the baseline level (vehicle-treated rats = 100%) ([1]; Time 0 min): 107.7% | blood glucose level as a percentage compared to the baseline level (vehicle-treated rats = 100%) ([1]; Time 5 min): 119.9% | blood glucose level as a percentage compared to the baseline level (vehicle-treated rats = 100%) ([1]; Time 15 min): 104.3% | blood glucose level as a percentage compared to the baseline level (vehicle-treated rats = 100%) ([1]; Time 30 min): 109.1% | blood glucose level as a percentage compared to the baseline level (vehicle-treated rats = 100%) ([1]; Time 60 min): 112.1% | blood glucose level as a percentage compared to the baseline level (vehicle-treated rats = 100%) ([1]; Time 120 min): 126.5% | blood glucose level as a percentage compared to the baseline level (vehicle-treated rats = 100%) ([1]; Time 180 min): 105.3% | blood glucose level as a percentage compared to the baseline level (vehicle-treated rats = 100%) ([1]; Time 240 min): 110.9% | blood glucose level as a percentage compared to the baseline level (vehicle-treated rats = 100%) ([1]; Time 300 min): 104.0% | blood glucose level as a percentage compared to the baseline level (vehicle-treated rats = 100%) ([1]; Time 360 min): 100.4% | blood glucose level as a percentage compared to the baseline level (vehicle-treated rats = 100%) ([1]; Time 420 min): 102.6% | blood glucose level as a percentage compared to the baseline level (vehicle-treated rats = 100%) ([1]; Time 480 min): 111.8% | Dose which can increase the average of body temperatures at 1° C. for 180 min in reserpine-induced hypothermia mice, administered intracerebroventicularly [2]: 0.025 µmol/kg

NC(=O)[C@@H]1CCCN1C(=O)[C@H](Cc1cnc[nH]1)NC(=O)[C@@H]1CCC(=O)N1 [TRH, L-pyroglutamyl-L-histidyl-L-prolineamide]
Dose which can increase the average of body temperatures at 1° C. for 420 min in reserpine-induced hypothermia mice by oral [3]: 42.68 µmol/kg | blood glucose level as a percentage compared to the baseline level (vehicle-treated rats = 100%) ([1]; Time 0 min): 116.3% | blood glucose level as a percentage compared to the baseline level (vehicle-treated rats = 100%) ([1]; Time 5 min): 114.6% | blood glucose level as a percentage compared to the baseline level (vehicle-treated rats = 100%) ([1]; Time 15 min): 123.3% | blood glucose level as a percentage compared to the baseline level (vehicle-treated rats = 100%) ([1]; Time 30 min): 137.9% | blood glucose level as a percentage compared to the baseline level (vehicle-treated rats = 100%) ([1]; Time 60 min): 153.5% | blood glucose level as a percentage compared to the baseline level (vehicle-treated rats = 100%) ([1]; Time 120 min): 139.1% | blood glucose level as a percentage compared to the baseline level (vehicle-treated rats = 100%) ([1]; Time 180 min): 119.1% | blood glucose level as a percentage compared to the baseline level (vehicle-treated rats = 100%) ([1]; Time 240 min): 112.6% | blood glucose level as a percentage compared to the baseline level (vehicle-treated rats = 100%) ([1]; Time 300 min): 113.2% | blood glucose level as a percentage compared to the baseline level (vehicle-treated rats = 100%) ([1]; Time 360 min): 103.5% | blood glucose level as a percentage compared to the baseline level (vehicle-treated rats = 100%) ([1]; Time 420 min): 102.6% | blood glucose level as a percentage compared to the baseline level (vehicle-treated rats = 100%) ([1]; Time 480 min): 97.1% | acute rise of the blood glucose level and fall by the rebound after administration ([1]; result in words): acutely raises up the blood glucose level | Dose which can increase the average of body temperatures at 1° C. for 180 min in reserpine-induced hypothermia mice, administered intracerebroventicularly [2]: 0.033 µmol/kg | Dose which can increase the average of body temperatures at 1° C. for 180 min in reserpine-induced hypothermia mice, administered intravenously ([2]; intravenous, calculated from AUC for 180 min after 1 μmol/kg): 9.84 µmol/kg
